How the values were obtained:
[1] = test system: Cultures ATCC 23342, ATCC 31683, CSV 558 and CUC 014; assay: Sensitivity to nine antibiotics, all four cultures; assay type: cell-based, Actinoplanes missouriensis; settings: identical pattern
Method: Temperature range, NaCl and sucrose tolerances, pH range, and antibiotic sensitivity were determined using ISP No. 2 (yeast-malt extract agar) plates. Plates were incubated at 30° C. for 14 days. The temperatures tested were 5°, 10°, 15°, 20°, 25°, 30°, 37°, 40°, 45°, 50° and 55° C.
Antibiotic sensitivity was determined using sensitivity discs padded on the surface of seeded agar plates. The following antibiotics were used: cephalothin (sodium) 30 μg, erythromycin (estolate) 15 μg, chloromycetin 30 μg, novobiocin 30 μg, penicillin (G) 10 units, rifampin 5 μg, streptomycin 10 μg, tetracycline 30 μg and vancomycin 30 μg.

[2] = test system: mutants (ATCC 31683, CSV 558 and CUC 014); assay: Buffer toxicity at pH 7.0, mutant strains; settings: all the mutants; buffers 0.05M adjusted to pH 7.0, growth checked
[3] = test system: wild-type strain (ATCC 23342); assay: Buffer toxicity at pH 7.0, wild-type strain; settings: buffers 0.05M adjusted to pH 7.0, growth checked

| SMILES | sensitivity to nine antibiotics [1] | sensitivity to citric acid [2] | sensitivity to citric acid [3] |
| --- | --- | --- | --- |
| CO[C@@H]1[C@@H](OC(N)=O)[C@@H](O)[C@H](Oc2ccc3c(O)c(NC(=O)c4ccc(O)c(CC=C(C)C)c4)c(=O)oc3c2C)OC1(C)C [Novobiocin] | Resistance |  |  |
| CC1(C)S[C@@H]2[C@H](NC(=O)Cc3ccccc3)C(=O)N2[C@H]1C(=O)O [Penicillin G] | Resistance |  |  |
| O=C(O)CC(O)(CC(=O)O)C(=O)O [citric acid] |  | sensitive | not sensitive |

From US4587218A, “Novel bioconverting microorganisms” (priority 1983, dated 1986)
